Results published in patent US20080171716A1, “NUCLEIC ACID MODULATION OF TOLL-LIKE RECEPTOR-MEDIATED IMMUNE STIMULATION” (Protiva Biotherapeutics, Inc., priority 2006, published 2008).
“Also recorded” adds a separate entry of the source. m = 2'-O-methyl; r = 2'-OH (RNA)

How the values were obtained:
TLR7 = target: T1, TLR7 (Homo sapiens, UniProt Q9NYK1); assay: Loxoribine (TLR7 agonist)-induced IFN-α/IL-6 production in human PBMCs; format: cell-based; details: for reduction of Lox induced IFN-α / reduction of Lox induced IL-6: 300 μM Lox, formulated 2′OMe RNA 1.5 μg/ml (~0.2 μM), 24 h, replicate experiments; for IL-6 levels induced by naked loxoribine / level of IFN-α induced by naked loxoribine: SNALP-encapsulated ssRNA added before naked agonist, supernatant at 24 hr, ELISA
T1 construct: Human PBMCs were isolated from whole blood of healthy donors; endogenous in cells; host or cells: primary human PBMCs from healthy donors
T1 sequence (Q9NYK1 27-1049): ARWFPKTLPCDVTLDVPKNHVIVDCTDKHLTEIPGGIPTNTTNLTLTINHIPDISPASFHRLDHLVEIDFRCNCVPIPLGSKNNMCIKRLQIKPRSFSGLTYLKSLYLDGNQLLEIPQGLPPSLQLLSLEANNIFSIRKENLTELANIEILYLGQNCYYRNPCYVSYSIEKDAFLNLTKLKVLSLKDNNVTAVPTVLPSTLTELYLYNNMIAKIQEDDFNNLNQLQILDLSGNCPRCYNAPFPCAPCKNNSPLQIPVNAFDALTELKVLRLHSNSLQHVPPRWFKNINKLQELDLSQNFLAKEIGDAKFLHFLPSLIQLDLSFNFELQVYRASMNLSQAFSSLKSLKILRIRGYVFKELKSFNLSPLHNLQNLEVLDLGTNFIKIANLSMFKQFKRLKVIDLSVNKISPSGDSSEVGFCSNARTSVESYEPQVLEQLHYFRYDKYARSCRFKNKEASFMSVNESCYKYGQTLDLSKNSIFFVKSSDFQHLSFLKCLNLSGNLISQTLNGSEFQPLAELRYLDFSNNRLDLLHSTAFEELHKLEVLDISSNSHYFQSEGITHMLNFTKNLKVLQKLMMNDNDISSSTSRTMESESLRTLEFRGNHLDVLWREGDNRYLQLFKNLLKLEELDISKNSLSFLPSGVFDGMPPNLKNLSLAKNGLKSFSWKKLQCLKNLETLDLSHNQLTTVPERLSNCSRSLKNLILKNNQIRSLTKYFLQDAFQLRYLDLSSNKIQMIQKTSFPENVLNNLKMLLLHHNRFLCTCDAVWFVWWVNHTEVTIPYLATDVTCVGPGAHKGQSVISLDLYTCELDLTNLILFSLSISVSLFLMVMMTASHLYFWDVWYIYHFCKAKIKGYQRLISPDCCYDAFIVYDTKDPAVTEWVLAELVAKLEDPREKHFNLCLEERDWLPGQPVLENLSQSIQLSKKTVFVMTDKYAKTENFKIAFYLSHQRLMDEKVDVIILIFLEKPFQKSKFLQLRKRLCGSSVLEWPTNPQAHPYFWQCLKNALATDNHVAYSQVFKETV
Experimental: (§1) All RNA molecules used in this study were heated at 90° C. for 3 min. and then placed at 37° C. for 60 min. Non-denaturing PAGE analysis on a 20% polyacrylamide gel was performed to confirm that ssRNA molecules were intact and that no duplexes had formed upon heating. The RNA molecules were encapsulated in a SNALP formulation comprising PEG-cDMA:DLinDMA:cholesterol:DSPC in a 2:40:48:10 mol % ratio (2:40 SNALP), prepared using a syringe press process.
(§2) Fresh human peripheral blood mononuclear cells (PBMCs) were isolated and seeded at about 3×10^5 cells/well in a total volume of 180 μl. Next, 20 μl of the appropriate SNALP diluted in PBS or 10 μl of naked TLR agonist were added to the PBMCs. For time course experiments, PBMCs were pretreated with UmodS ssRNA or a control and the appropriate naked TLR agonist was added at 0, 0.5, or 2 hours after pretreatment. When the SNALP and naked TLR agonist were added separately, the SNALP was added first followed by the naked TLR agonist. At t=24 hr., the cell supernatant was harvested and IFN-α and/or IL-6 levels were determined using ELISA.
(§3) Lipid Encapsulation of RNA and ODN. RNA or ODN were encapsulated in liposomes by a process of spontaneous vesicle formation as described in Judge et al., supra, and Jeffs et al., Pharm. Res., 22:362-372 (2005).
(§4) Cell Isolation and Culture. Human PBMCs were isolated from whole blood of healthy donors by a standard Ficoll-Hypaque density centrifugation. Blood was diluted 1:1 with PBS, layered onto Ficoll-Paque Plus, and centrifuged at 1600 RPM for 30 min. PBMCs were washed in PBS twice followed by resuspension in complete media (RPMI 1640, 10% heat inactivated FBS, 2 mM L-glutamine, and 1% penicillin/streptomycin). PBMCs were plated at 2.5×10^5 cells/well in 96 well plates for cytokine induction assays.
(§5) Loxoribine (InvivoGen; San Diego, Calif.), polyIC (Sigma-Aldrich; St. Louis, Mo.), and formulated nucleic acids were diluted in PBS and added to either human PBMC or Flt3L DC cultures. Cells were incubated 24 h at 37° C. before supernatants were assayed for cytokines by ELISA.
(§6) Cytokine ELISA. All cytokines were quantified using sandwich ELISA kits according to the manufacturer's instructions. These were mouse and human IFN-α (PBL Biomedical; Piscataway, N.J.) and IL-6 (eBioscience; San Diego, Calif.).

TLR7/8 = assay: Cytokine induction in human PBMCs by immunostimulatory RNA, alone or co-formulated with modified ssRNA in the same SNALP/lipid particle; format: cell-based; details: for immunostimulatory effects (IFN-α induction) of ApoB antisense ssRNA when co-formulated / immunostimulatory effects (IFN-α induction) of ApoB siRNA duplex when co-formulated: co-formulated in the same SNALP; for immunostimulatory effects (IFN-α induction) of ApoB antisense ssRNA when co-formulated: 1:1 molar ratio; for immunostimulatory effects (IFN-α induction) of ApoB siRNA duplex when co-formulated: equimolar
Experimental: as §1, §2
The ssRNA molecules used in this study were heated at 90° C. for 3 min. and then placed at 37° C. for 60 min to disrupt any potential secondary structure. Non-denaturing PAGE analysis on a 20% polyacrylamide gel was performed to confirm that ssRNA molecules were intact and that no duplexes had formed upon heating. siRNA duplexes were prepared by annealing equimolar concentrations of two deprotected and desalted ssRNA oligonucleotides using standard procedures. Formation of annealed siRNA duplexes was confirmed by non-denaturing PAGE analysis on a 20% polyacrylamide gel. The RNA molecules were encapsulated in a 2:40 SNALP formulation prepared using a syringe press process.
Fresh human peripheral blood mononuclear cells (PBMCs) were isolated and seeded at about 3×10^5 cells/well in a total volume of 180 μl. Next, 20 μl of the appropriate SNALP diluted in PBS were added to the PBMCs. At t=24 hr., the cell supernatant was harvested and IFN-α and/or IL-6 levels were determined using an enzyme-linked immunosorbent assay (ELISA). For example, IFN-α and IL-6 levels can be measured using a sandwich ELISA kit available from PBL Biomedical (Piscataway, N.J.) and eBioscience (San Diego, Calif.), respectively.
as §3, §4, §5, §6

[1] = human PBMCs, co-encapsulated in equimolar amounts in the same SNALP, 24 hr
[2] = human PBMCs, 24 h, listed as Luc-mU
[3] = human PBMCs, equimolar amounts in the same SNALP, 24 h

Substance	reduction of Lox induced IFN-α (TLR7)	reduction of Lox induced IL-6 (TLR7)	IL-6 levels induced by naked loxoribine (TLR7)	level of IFN-α induced by naked loxoribine (TLR7)	IFN-α production induced by the RNA alone (TLR7/8; human PBMC cultures, lipid-formulated RNA alone, doses 0.1 to 3 μg/ml)	IFN-α levels induced by TLR7/8 agonist RNA40 (TLR7/8; [1])	IL-6 levels induced by TLR7/8 agonist RNA40 (TLR7/8; [1])	immunostimulatory effects (IFN-α induction) of ApoB antisense ssRNA when co-formulated (TLR7/8; human PBMCs, 24 h)	immunostimulatory effects (IFN-α induction) of ApoB antisense ssRNA when co-formulated (TLR7/8; [2])	immunostimulatory effects (IFN-α induction) of ApoB siRNA duplex when co-formulated (TLR7/8; human PBMCs, 24 h)	immunostimulatory effects (IFN-α induction) of ApoB siRNA duplex when co-formulated (TLR7/8; [2])	IFN-α levels induced by β-gal antisense ssRNA when co-encapsulated (TLR7/8; [3])	cytokine production from human PBMCs when co-formulated with immunostimulatory RNA (TLR7/8; human PBMCs, co-formulated with immunostimulatory ssRNA)	IL-6 levels induced by β-gal antisense ssRNA when co-encapsulated (TLR7/8; [3])	IFN-α levels induced by β-gal antisense ssRNA when co-encapsulated (TLR7/8; human PBMCs, equimolar amounts in the same SNALP, 24 h, listed as (mU)21)
Luc UmodS: Luc sense strand ssRNA with 2′OMe at uridines: GAmUmUAmUGmUCCGGmUmUAmUGmUAUU (sense GAUUAUGUCCGGUUAUGUAUU; sugars from the 5' end rrmmrmrmrrrrmmrmrmrrr, backbone not given here)	55+/−16%	62+/−10%	inhibited	dose-dependently decrease; also recorded: inhibited	do not induce measurable IFN-α production	significantly reduce	significantly reduce	abolished	abrogated	significantly reduced	abrogated	abrogated	–	–	–
polyUmod21: 2′OMe-uridine homopolymer of 21 nucleotides in length (UUUUUUUUUUUUUUUUUUUUU; all 2'-O-methyl, backbone not given here)	72+/−5%	80+/−1%	inhibited	inhibited	–	–	–	–	–	–	–	significantly reduced	equally as effective at inhibiting cytokine production	significantly reduced	inhibit
